According to the supplement of paper PMC10307832:

Columns and labels:
Experiment in all cases: relative viability (nuclei count vs DMSO), 5 days (fraction); higher = more cells survive
Avagacestat + Navitoclax = compound: NC(=O)[C@@H](CCC(F)(F)F)N(Cc1ccc(-c2ncon2)cc1F)S(=O)(=O)c1ccc(Cl)cc1 [Avagacestat] + CC1(C)CCC(c2ccc(Cl)cc2)=C(CN2CCN(c3ccc(C(=O)NS(=O)(=O)c4ccc(N[C@H](CCN5CCOCC5)CSc5ccccc5)c(S(=O)(=O)C(F)(F)F)c4)cc3)CC2)C1 [Navitoclax] (partner 0.5 µM)
In short: (§1)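 Lung cancer cell lines were seeded in 1536-well plates and dosed by pin tool the next day, with either a single drug or a fixed anchor-drug dose combined with five library-drug doses (not always all listed) spaced in √10 steps. Five days later, one step fixed the cells and stained their nuclei (final 0.05% Triton X-100, 1% formaldehyde, 1 ug/ml Hoechst), and nuclei were counted on 4× images. Relative viability is the nuclei count in treated wells divided by the count in vehicle wells, and each value is the median of duplicate plates.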

Avagacestat + Vorinostat = compound: NC(=O)[C@@H](CCC(F)(F)F)N(Cc1ccc(-c2ncon2)cc1F)S(=O)(=O)c1ccc(Cl)cc1 [Avagacestat] + O=C(CCCCCCC(=O)Nc1ccccc1)NO [Vorinostat] (partner 1 µM)
In short: as §1

Avagacestat + Crizotinib = compound: NC(=O)[C@@H](CCC(F)(F)F)N(Cc1ccc(-c2ncon2)cc1F)S(=O)(=O)c1ccc(Cl)cc1 [Avagacestat] + C[C@@H](Oc1cc(-c2cnn(C3CCNCC3)c2)cnc1N)c1c(Cl)ccc(F)c1Cl [Crizotinib] (partner 1 µM)
In short: as §1

Avagacestat + Tozasertib = compound: NC(=O)[C@@H](CCC(F)(F)F)N(Cc1ccc(-c2ncon2)cc1F)S(=O)(=O)c1ccc(Cl)cc1 [Avagacestat] + Cc1cc(Nc2cc(N3CCN(C)CC3)nc(Sc3ccc(NC(=O)C4CC4)cc3)n2)n[nH]1 [Tozasertib] (partner 0.1 µM)
In short: as §1

Row | Cell Line | relative viability (Avagacestat + Navitoclax; first compound 0.08 µM) | relative viability (Avagacestat + Navitoclax; first compound 0.253 µM) | relative viability (Avagacestat + Navitoclax; first compound 0.8 µM) | relative viability (Avagacestat + Navitoclax; first compound 2.53 µM) | relative viability (Avagacestat + Navitoclax; first compound 8 µM) | relative viability (Avagacestat + Vorinostat; first compound 0.08 µM) | relative viability (Avagacestat + Vorinostat; first compound 0.253 µM) | relative viability (Avagacestat + Vorinostat; first compound 0.8 µM) | relative viability (Avagacestat + Vorinostat; first compound 2.53 µM) | relative viability (Avagacestat + Vorinostat; first compound 8 µM) | relative viability (Avagacestat + Crizotinib; first compound 0.08 µM) | relative viability (Avagacestat + Crizotinib; first compound 0.253 µM) | relative viability (Avagacestat + Crizotinib; first compound 0.8 µM) | relative viability (Avagacestat + Crizotinib; first compound 2.53 µM) | relative viability (Avagacestat + Crizotinib; first compound 8 µM) | relative viability (Avagacestat + Tozasertib; first compound 0.08 µM) | relative viability (Avagacestat + Tozasertib; first compound 0.253 µM) | relative viability (Avagacestat + Tozasertib; first compound 0.8 µM) | relative viability (Avagacestat + Tozasertib; first compound 2.53 µM) | relative viability (Avagacestat + Tozasertib; first compound 8 µM)
1 | COR-L 105 | 0.851 | 0.604 | 0.779 | 0.595 | 0.648 | 1.08 | 0.891 | 0.87 | 0.792 | 0.884 | 0.856 | 0.815 | 0.919 | 0.547 | 0.72 | 0.379 | 0.458 | 0.41 | 0.334 | 0.359
2 | LK-2 | 1.16 | 0.969 | 0.704 | 0.365 | 0.797 | 0.196 | 0.353 | 0.265 |  | 0.22 | 0.241 | 0.206 | 0.249 | 0.282 | 0.235 | 0.188 | 0.147 | 0.185 | 0.183 | 0.172
3 | PC-14 | 1.19 | 1.19 | 1.12 | 0.97 | 0.899 | 0.774 | 0.725 | 0.808 | 0.589 | 0.619 | 0.995 | 0.97 | 0.936 | 1.04 | 0.829 | 0.733 | 0.859 | 0.925 | 0.692 | 0.633
4 | SW 1573 | 1.3 | 0.97 | 0.989 | 1.04 | 0.974 | 0.933 | 0.672 | 1.05 | 0.624 | 0.672 | 0.844 | 0.905 | 0.777 | 0.816 | 0.709 | 0.169 | 0.195 | 0.173 | 0.217 | 0.176
5 | NCI-H2085 | 1.21 | 1.37 | 1.13 | 1.26 | 1.08 | 0.815 | 0.855 | 0.807 | 0.758 | 0.882 | 0.928 | 0.975 | 1 | 1.04 | 0.811 | 0.849 | 0.894 | 0.842 | 0.803 | 0.829
6 | NCI-H1648 |  |  |  |  |  | 0.512 | 0.374 | 0.31 | 0.35 | 0.276 |  |  |  |  |  | 0.374 | 0.464 | 0.371 | 0.296 | 0.298
7 | NCI-H522 |  |  |  |  |  | 1.04 | 1.01 | 0.928 | 0.866 | 0.792 |  |  |  |  |  | 0.559 | 0.593 | 0.579 | 0.517 | 0.479
8 | NCI-H1792 | 1.25 | 0.584 | 1.13 | 0.538 | 0.417 |  |  |  |  |  | 1.42 | 1.33 | 1.45 | 0.992 | 0.805 |  |  |  |  | 
9 | NCI-H661 |  |  |  |  |  | 0.845 | 0.98 | 0.827 | 0.784 | 0.785 | 1.12 | 1.06 | 1.05 | 1.3 | 0.968 | 0.356 | 0.381 | 0.361 | 0.363 | 0.37
10 | LCLC-103H |  |  |  |  |  | 0.807 | 0.759 | 0.846 | 0.864 | 0.673 | 1.03 | 1.09 | 1.01 | 0.967 | 0.831 | 0.58 | 0.55 | 0.512 | 0.391 | 0.449
11 | NCI-H1793 | 0.434 | 0.491 | 0.507 | 0.347 | 0.396 | 0.841 | 0.985 | 0.773 | 0.865 | 0.993 |  |  |  |  |  | 0.307 | 0.329 | 0.655 | 0.239 | 0.3
12 | NCI-H2342 |  |  |  |  |  | 0.845 | 0.822 | 0.842 | 0.705 | 0.774 |  |  |  |  |  | 0.593 | 0.48 | 0.57 | 0.493 | 0.527
13 | ABC-1 |  |  |  |  |  | 1.22 | 1.14 | 1.71 | 1.15 | 1.02 | 1.05 | 1.59 | 1.53 | 1.09 | 1.09 | 0.164 | 0.16 | 0.178 | 0.187 | 0.179
14 | NCI-H1563 |  |  |  |  |  |  |  |  |  |  | 0.883 | 0.751 | 0.83 | 0.801 | 0.708 |  |  |  |  | 
15 | NCI-H358 |  |  |  |  |  | 0.911 | 0.762 | 0.733 | 0.557 | 0.679 | 0.555 | 0.579 | 0.457 | 0.609 | 0.545 | 0.106 | 0.0996 | 0.102 | 0.101 | 0.107
16 | EBC-1 | 0.342 | 0.392 | 0.334 | 0.372 | 0.296 |  |  |  |  |  | 0.213 | 0.196 | 0.2 | 0.21 | 0.203 |  |  |  |  | 
17 | NCI-H650 |  |  |  |  |  | 0.439 | 0.537 | 0.56 | 0.455 | 0.435 | 0.625 | 0.762 | 0.692 | 0.744 | 0.823 | 0.872 | 0.973 | 0.761 | 0.65 | 0.702
18 | A549 | 1.64 | 1.65 | 1.27 | 1.26 | 1.25 |  |  |  |  |  | 1.27 | 1.26 | 0.771 | 0.808 | 0.623 |  |  |  |  | 
19 | NCI-H1299 | 1.04 | 1.03 | 1.08 | 1.08 | 1.04 |  |  |  |  |  | 1.01 | 1.05 | 0.952 | 0.98 | 0.91 |  |  |  |  | 
20 | NCI-H1395 | 1.12 | 1.23 | 1.03 | 0.903 | 1.11 | 0.64 | 0.519 | 0.719 | 0.429 | 0.63 |  |  |  |  |  | 0.826 | 0.758 | 0.752 | 0.64 | 0.715
